The values that follow come from ChEMBL document CHEMBL1201862, “PubChem BioAssay data set” (2004).

Active and inactive are the calls of the source. For most assays here, no stated cut-off is given here; in the data, actives have a measured EC50 and inactives only a lower limit.

A short description of experiment [1]: Luminescence Cell-Based Dose Confirmation HTS to Identify Activators of 5'UTR Stem-Loop Driven Alpha-Synuclein mRNA Translation in H4 Neuroglioblastoma Cells. [Related pubchem assays: 1829 (Project Summary), 1814 (Primary HTS)]. In kind it is functional.
Experiment [2] is described as follows: Luminescence Cell-Based Dose Response HTS to Identify Activators of Luciferase Translation or Activity in H4 […] Cells. [Related pubchem assays: 1829 (Project Summary), 1814 (Primary HTS)]. The class given is functional.
A further experiment deals with H4. Nature of the experiment: Luminescence Cell-Based Dose Response HTS to Identify Activators of 5'UTR Stem-Loop Driven Prion Protein mRNA Translation in H4 Neuroglioblastoma Cells. [Related pubchem assays: 1829 (Project Summary), 1814 (Primary HTS)]. The class given is functional. To be noted: Homo sapiens.
A short description of experiment [3]: P. falciparum Dd2 growth inhibitors, dose response, SYBR Green, cherry-picked samples (AID 1159567). In kind it is functional, cell-based.
The nature of experiment [4]: NIH-3T3 fibroblast cytotoxicity, dose response, cytotoxicity control, cell-based, fluorescence, Alamar Blue, secondary assay (AID 2327).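 Further: NIH-3T3 mouse fibroblasts cultured with fluconazole at 8 µg/mL.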 In kind it is functional. (In general: Resazurin is reduced to fluorescent resorufin, in cell work by metabolically active cells.)
The nature of experiment [5]: fluconazole-exposed Candida albicans growth modulators – fluorescence, retest, confirmation (AID 2467). The class given is functional, cell-based.
A short description of experiment [6]: Luminescence Cell-Based Dose Retest to Confirm Inhibitors of Cancer Stem Cells. [Related pubchem assays (depositor defined):AID2717, AID2721]. The class given is functional. To be noted: Homo sapiens.
The nature of experiment [7]: microbe, parasite or virus in culture. The class given is functional. To be noted: Mycobacterium tuberculosis.
The nature of experiment [8]: viability of uninfected HEp-2 cells – cell-based, HTS, cytotoxicity control for RSV inhibitor project, dose response (AID 2410). In kind it is functional. To be noted: human respiratory syncytial virus.

For the compound `Cc1c([N+](=O)[O-])c(C(=O)Nc2ccc3c(c2)OCCO3)nn1C`, the EC50 (in general, the midpoint of the concentration-response curve) in [1] is 17.1 µM (active); in experiment [2] it was 11 µM (active); in the experiment with H4, 9.3 µM (active).
For `O=C(c1ccccc1)N1CC[C@@H]2[C@@H](CO)Nc3ccc(-c4ccc(F)cc4)cc3[C@@H]21`, the AC50 (usually the concentration at which the activity in the assay is half-maximal) in experiment [3] was 5.45 µM (active).
Take `CC1CCCCC1NC(=O)/C=C/c1nc2ccccc2s1` (configuration not stated): the figures for the EC50 (in [1]; in [2]; in the experiment on H4) were 15.9 µM (active), 17.2 µM (active) and 16.2 µM (active), respectively.
For the compound `C[C@H]1CN([C@@H](C)CO)S(=O)(=O)c2ccc(C#Cc3ccccc3)cc2O[C@@H]1CN(C)C(=O)C1CC1`, in experiment [3], the AC50 is 5.43 µM (active).
As for `C=CCC1(CC=C)CCCN1C(=O)C1CCC(=O)N(CCc2ccc(OC)cc2)C1` (configuration not stated), the EC50 was 6.13 µM (active) in [1], 10.4 µM (active) in experiment [2] and 96 µM (active) in the experiment with H4.
For the compound `O=C(/C=C/c1ccccc1)NNc1ccc(Cl)cc1`, the half-maximal effective concentration (EC50) in experiment [4] was 28.1 µM (inconclusive); in [5], 2.71 µM (active). In experiment [6], the AC50 is 5.85 µM (active).
Consider `CO[C@H]1CN(C)C(=O)c2cc(NC(=O)c3ccc(F)cc3)ccc2OC[C@H](C)N(C(=O)c2ccc(F)cc2)C[C@H]1C`, for which the AC50 in experiment [3] was 6.03 µM (active).
In the case of `N#Cc1ccc(OCC(O)CN2CCN(c3ncc(C(F)(F)F)cc3Cl)CC2)cc1` (configuration not stated), the CC50 in experiment [7] was > 40 µM (active).
As to `COC(=O)c1cn(CC(=O)NC2CCCCC2)c2ccccc12`, the EC50 is > 150 µM (inactive) in experiment [4] and > 38 µM (not active) in experiment [5].
`Cc1nc(-c2nc(-c3c(C(=O)NNC(=O)c4ccc(Cl)cc4)noc3C)cs2)cs1`: the CC50 in [7] was > 40 µM (active).
As for `CC(C)c1ccc(N(C(=O)c2ccco2)C(C(=O)NC2CCCC2)c2ccncc2)cc1` (configuration not stated), the EC50 in [1] is 22.1 µM (active); in experiment [2], 50.3 µM (active); in the experiment on H4, > 120 µM (not active).
Turning to `CCc1ccc(N2CC(C(=O)N/N=C/c3cc([N+](=O)[O-])ccc3O)CC2=O)cc1` (configuration not stated), the EC50 is 23.1 µM (active) in [4] and > 38 µM (not active) in experiment [5].
For `COc1cc(C2CC(=O)Nc3[nH]nc(-c4ccccc4)c32)cc(OC)c1OC` (configuration not stated), the EC50 (in experiment [1]; in experiment [2]; in the experiment with H4) was > 120 µM (not active) in each case.
In the case of `Oc1ccc(Cl)cc1C1=NNC(c2cc(Br)cc3c2OCOC3)C1` (configuration not stated), the figures for the EC50 in experiment [4] and in experiment [5] were > 160 µM (inactive) and > 38 µM (not active), respectively.
For the compound `COc1ccccc1CNC(=O)C[C@H]1C[C@@H]2c3cc(NC(=O)Nc4ccc(C(F)(F)F)cc4)ccc3O[C@@H]2[C@@H](CO)O1`, the AC50 in [3] was 8.47 µM (active).
In the case of `O=C(Nc1cccc(F)c1)c1ccc2ncsc2c1`, the values for the EC50 in experiment [4] and in experiment [5] were > 150 µM (inactive) and 3.17 µM (active), respectively.
Turning to `NC(=S)n1[nH]c(-c2ccccc2)c(N=Nc2ccccc2C(=O)N2CCOCC2)c1=O`, the figures for the EC50 in experiment [4] and in [5] were > 150 µM (inactive) and 7.72 µM (active), respectively.
As to `Cc1cccc(NC(=O)c2nc[nH]c2C(=O)N[C@H](C)c2ccccc2)c1`, the CC50 in [7] is 36.9 µM (active). The AC50 in experiment [6] is 6.42 µM (active).
For `Cc1nc(NC(=O)CC(C)C)sc1-c1csc(Nc2ccc(Cl)cc2Cl)n1`, the CC50 is 22.9 µM (active) in experiment [8] and > 40 µM (active) in experiment [7]. Also, the AC50 in experiment [6] was 1.85 µM (active).
Regarding `CN(C)c1ccc2c(c1)[C@@H]1C[C@@H](CC(=O)N3CCc4ccccc4C3)O[C@@H](CO)[C@@H]1O2`, the AC50 in experiment [3] is 9.12 µM (active).
Still for that read-out and setting: next, `CN1C[C@H]2[C@@H](c3ccccc31)[C@H](CO)N2Cc1ccccc1F`: 8.06 µM (active).
For `CCOc1ccc2nc(N=C(N)N=C(S)Nc3cccc(C)c3)nc(C)c2c1`, the CC50 in experiment [7] is > 40 µM (active).
